Measurements as given in patent US4548922A, “Drug administration” (Beth Israel Hospital, priority 1983, dated 1985).

Assay: k' factor value (hydrophobicity) by high-performance liquid column chromatography on octadecylsilane column
Type: physicochemical
Settings: unconjugated steroid; 75% methanol in water, apparent pH 5.0, octadecylsilane column
Method: Preferably the steroid used in the invention is characterized in that the unconjugated derivative of the steroid is retained on a hydrophobic column for a length of time sufficient to produce a k' factor value of at least 7, the k' factor value being obtained by subjecting a monomeric solution of 1 mg/ml of such steroid derivative to high-performance liquid column chromatography at 3,000 psi, using a 250×4.6 mm column having octadecylsilane-coated 5 μm micro silica particles as the stationary phase and a mobile phase, delivered at 1.0 ml/min., consisting of 75% methanol in water, v/v, buffered with 0.005 M KH2 PO4 /H3 PO4 to give an apparent pH value, as measured using a glass electrode, of 5.0, the k' factor value being defined by k'=(tr -t0)/t0, where t0 is the retention time in the column of the solvent front and tr is the retention time in the column of the steroid derivative as measured by obtaining the elution profile of the steroid derivative by absorbance at 210 nm.
The structure of the steroid molecule affects its chemical properties and thus its functioning as a drug transporting molecule. We believe that all of the steroid molecules used in the invention facilitate transport by self-associating to form reversed micelles within the membrane across which the drug is being transported; these reversed micelles, it is believed, function as pores, allowing the drug to pass through. A measure of the ability of a given steroid molecule's ability to form such reversed micelles is the hydrophobicity of the unconjugated form of the molecule, a property which can be quantified using the k' factor value, which is computed by observing the steroid's retention time in a high-performance liquid chromatography (HPLC) column under the conditions described above. As mentioned above, the k' factor value of the unconjugated derivative of the steroid should be at least 7 for the steroid to be suitable in the therapeutic compositions of the invention.

k' factor value	Structure (SMILES)
4.7	C[C@H](CCC(=O)O)[C@H]1CC[C@H]2[C@@H]3[C@@H](O)C[C@@H]4C[C@H](O)CC[C@]4(C)[C@H]3CC[C@]12C [ursodeoxycholic acid]
9.5	CC(=O)O[C@@H]1[C@H]2[C@H](C)[C@H](O)CC[C@]2(C)[C@@H]2CC[C@H]3/C(=C(\CCC=C(C)C)C(=O)O)[C@@H](OC(C)=O)C[C@]3(C)[C@@]2(C)[C@H]1O [cephalosporin P1]

Structure (SMILES)	k' factor value
CC(=O)O[C@H]1C[C@@]2(C)[C@@H](CC[C@H]3[C@@]4(C)C=CC(=O)[C@@H](C)[C@@H]4[C@H](OC(C)=O)C(=O)[C@@]32C)/C1=C(\CCC=C(C)C)C(=O)O [helvolic acid]	4.7
